Assay results as given in patent US6632829B2, “Sulfonamides and derivatives thereof that modulate the activity of endothelin” (Texas Biotechnology Corp., priority 1996, dated 2003).
pIC50: −log10 of the molar value.

Tests used:
human ETB receptor = biological target: T1, human ETB receptor (Homo sapiens, UniProt P24530); experiment: Endothelin binding inhibition, Binding Test #2: competition with 125I-ET-1 for ETB receptors on transfected COS7 cell membranes; settings: incubation at 24° C. (values marked †)
T1 construct: expressed in transfected cells; host or cells: COS7 cells
T1 sequence (P24530 27-442): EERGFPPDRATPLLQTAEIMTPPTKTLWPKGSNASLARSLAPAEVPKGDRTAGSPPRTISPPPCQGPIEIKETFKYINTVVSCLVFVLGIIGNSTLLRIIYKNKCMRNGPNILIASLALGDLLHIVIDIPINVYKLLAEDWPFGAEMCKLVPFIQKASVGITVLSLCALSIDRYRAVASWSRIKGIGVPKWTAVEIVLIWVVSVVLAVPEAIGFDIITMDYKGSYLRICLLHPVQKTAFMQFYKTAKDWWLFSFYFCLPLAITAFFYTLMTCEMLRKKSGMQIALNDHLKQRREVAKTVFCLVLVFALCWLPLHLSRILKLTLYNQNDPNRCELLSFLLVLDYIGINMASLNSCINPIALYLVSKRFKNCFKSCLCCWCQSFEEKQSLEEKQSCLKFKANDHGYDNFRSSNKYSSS
Outline: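 Membranes from COS7 cells transfected with human ETB receptor, prepared in HEPES pH 7.4 with aprotinin, MnCl2/DNase treatment at 37° C for 30 min. Test compounds compete with 125I-labeled ET-1 for receptor binding; membrane used at 1 μg/50 μL binding buffer.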

[1] = system: Pulmonary Hypertension model; experiment: Pulmonary Hypertension model; assay type: in vivo, rat; parameters: key: ++: effective at 5 mg/kg; −: no effect at 5 mg/kg; +: effective at 15 mg/kg
Method: As used herein, efficacy refers to the maximal effect that can be produced by a compound. Efficacy can be determined by methods known to those of skill in the art. For example, it can be determined by the properties of the compound and its receptor-effector system and is reflected in the plateau of the concentration-effect curve. In vivo efficacy refers to efficacy which is determined in an animal model. For example, in vivo efficacy of the compounds described herein can be determined by hypoxia-induced pulmonary hypertension in rat. See, e.g., DiCarlo et al. (1995) Am. J. Physiol. 269:[…]-[…]. Table 2 lists oral half-life, bioavailability, and in vivo activity of selected exemplary compounds. The in vivo activity was measured in a pulmonary hypertension model and is a measure of the activity of the compounds at selected dosages.

Cc1cc(C)c(NC(=O)c2sccc2S(=O)(=O)Nc2onc(C)c2Cl)c(C)c1O [N-(4-chloro-3-methyl-5-isoxazolyl)-2-(3-hydroxy-2,4,6-trimethylphenylaminocarbonyl)thiophene-3-sulfonamide]
pIC50 (human ETB receptor): 4.73 | in vivo Efficacy [1]: ++
